Data on 31 compounds can be found in PubChem BioAssay (NCI).

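Test compounds were applied to cells in 96-well plates for 48 hours at 5 doses. GI50 = concentration required for 50% inhibition of growth. TGI is the concentration that stops growth completely.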

What all share (test): growth of human tumour cells (NCI), 48 h
Assay [1] deals with IGROV1 ovarian.
In assay [2] the test system is SK-MEL-5 melanoma.
Assay [3] deals with HL-60(TB) leukemia.
The subject of assay [4] is SK-OV-3 ovarian.
For assay [5], the system named is NCI-H522 lung.
For assay [6], the system named is HOP-62 NSCLC.
The test system of assay [7] is LOX IMVI melanoma.
Assay [8] has as its system HOP-92 NSCLC.
The test system of assay [9] is EKVX NSCLC.
For assay [10], the system named is MCF7 breast.

Take `Nc1c(C(=O)NC23CC4CC(CC(C4)C2)C3)[n+]([O-])c2ccccc2[n+]1[O-]`: the TGI in assay [1], in assay [2], in [3], in assay [4], in [5] and in [6] was over 100 µM each time. In addition, the TGI in assay [7], in assay [8] and in assay [9] was over 100 µM each time.
`Cc1cn([C@H]2C[C@H](O)[C@@H](CO)O2)c(=O)nc1N`: the TGI in assay [1], in assay [10], in [2], in assay [3], in [4] and in [5] was over 100 µM each time. Also, the TGI in [6] and in assay [7] was over 100 µM throughout.
On to `ClC1c2ccccc2C2(c3ccccc3)OOC1(c1ccccc1)O2` (centres undefined), for which the TGI in [2] is 2.83 µM; in assay [3] it was 0.309 µM; in assay [5], 0.8 µM; in assay [6], 22.9 µM; in [7], 1.31 µM; in assay [8] it was 0.987 µM. Further, the TGI in [9] was 4.62 µM.
For the compound `CC(O)C(NC(=O)c1ccccc1)C(=O)N(Cc1ccccc1)Cc1ccccc1` (centres undefined), the TGI is over 100 µM in assay [1]; over 100 µM in [2]; over 100 µM in assay [3]; over 100 µM in assay [4]; 26.5 µM in assay [5]; over 100 µM in assay [6]. Moreover, the TGI in assay [7], in assay [8] and in assay [9] was over 100 µM each time.
With `CCC(C)c1cccc(C)c1NC(=O)C(=O)Cc1nc2ccccc2s1` (centres undefined), the TGI in assay [1], in assay [2], in assay [3], in assay [4], in assay [5] and in [6] was over 100 µM in each case. Further, the TGI in [7], in [8] and in assay [9] was over 100 µM in each case.
Take `CN(C)CCNC(=O)c1c2ccccc2cc2ccccc12`: the TGI in [1] is over 100 µM; in assay [2], 34.3 µM; in assay [3], 88.5 µM; in assay [4] it was over 100 µM; in assay [6], over 100 µM; in assay [7], 30.1 µM. The TGI in assay [8] and in [9] was over 100 µM each time.
In the case of `C[N+](C)(C)CC(CC(=O)[O-])C1CC1` (centres undefined), the TGI in assay [1], in assay [2], in assay [3], in [4], in assay [5] and in assay [6] was over 100 µM in each case. For the same compound, the TGI in assay [7], in assay [8] and in [9] was over 100 µM throughout.
Regarding `Oc1ccc2ccccc2c1N=Nc1ccc(Cl)cc1`, the TGI in assay [1], in assay [2], in assay [3], in [4], in [5] and in assay [6] was over 100 µM each time. The TGI is 78.7 µM in assay [7], over 100 µM in assay [8] and over 100 µM in assay [9].
Turning to `O=c1ccn(C2(CO)C=C(CO)C(O)C2O)c(=O)[nH]1` (centres undefined), the TGI in assay [1], in assay [2], in assay [3], in [4], in assay [5] and in assay [6] was over 25.7 µM in each case. This compound had a TGI in assay [9] of over 25.7 µM.
For the compound `COc1ccc(-c2nc(-c3ccccn3)c(-c3ccccn3)n2CC(C)C)cc1OC1CCCC1`, the GI50 in assay [1] was 11.5 µM; in [10], 6.58 µM; in assay [2], 11.4 µM; in [3], 21.2 µM; in [4], 27.6 µM; in assay [5] it was 31.4 µM. In addition, the results for the GI50 in assay [6] and in [7] were 15.3 µM and 26.1 µM, respectively. Besides, the TGI in [1] is over 165 µM; in [10], 115 µM; in assay [2] it was 38.4 µM; in assay [3], 58.8 µM; in assay [4], 116 µM; in assay [5] it was 81.3 µM. Further, the TGI in assay [6] is over 165 µM; in assay [7] it was 110 µM.
Regarding `CNc1ccc([N+](=O)[O-])c2c(NCCCN(C)C)ccnc12`, the TGI in assay [1], in [3], in assay [4], in assay [5], in assay [6] and in assay [7] was over 100 µM throughout. The same compound gave a TGI in [9] of over 100 µM.
In the case of `O=C(Oc1ccc2c(-c3ccccc3)c(C(=O)Nc3ccc(Cl)cc3)c(=O)oc2c1)c1ccccc1`, the TGI in assay [1], in assay [2], in assay [3], in assay [4], in assay [5] and in [6] was over 100 µM in each case. For the same compound, the TGI in assay [7] and in [9] was over 100 µM throughout.
As to `CN1C(=O)CCC1c1ccc2c(c1)oc(=O)n2C` (centres undefined), the TGI in assay [1], in assay [3], in assay [4], in [5], in assay [6] and in assay [7] was over 100 µM in each case. The compound further returned a TGI in assay [9] of over 100 µM.
Turning to `NC(CCc1ncc(-c2ccccc2)s1)C(=O)O` (centres undefined), the TGI in assay [1], in assay [2], in assay [3], in [4], in assay [5] and in [7] was over 100 µM each time. Besides, the TGI in [8] and in assay [9] was over 100 µM in each case.
On to `CC(C)CN1CC(C)C(=O)NC1=O` (centres undefined), for which the TGI in assay [2], in [3], in [4], in [5], in assay [6] and in assay [7] was over 100 µM each time. The TGI in assay [8] and in [9] was over 100 µM throughout.
`C=C1CCC2C(C)(CO)C(O)CCC2(C)C1C/C=C1/CCOC1=O` (centres undefined): the TGI in [1], in [2], in assay [3], in [4], in [5] and in [6] was over 100 µM each time. Further, the TGI in assay [7], in assay [8] and in assay [9] was over 100 µM throughout.
In the case of `CCOC(OCC)C(CC)[Se]c1ccccc1` (centres undefined), the TGI in assay [1] was over 100 µM; in [2], over 100 µM; in [3], 19 µM; in assay [4] it was over 100 µM; in [5], 46.2 µM; in [6] it was over 100 µM. In addition, the TGI in assay [7] is 21.6 µM; in assay [8], over 100 µM; in [9] it was over 100 µM.
With `COc1ccc(N=Nc2c(-c3ccccc3)nn(C(=O)CC(=O)Nc3ccccc3Cl)c2-c2ccccc2)cc1`, the TGI in assay [1], in assay [2], in assay [3], in assay [5], in [6] and in [7] was over 100 µM in each case. Further, the TGI in [8] and in [9] was over 100 µM each time.
In the case of `Cc1ccc(NC(=O)/C(=N/NC(=O)C[N+](C)(C)C)c2nc3ccccc3[nH]c2=O)cc1`, the TGI in assay [1], in assay [2], in assay [4], in assay [6], in [7] and in [8] was over 100 µM in each case. This compound registered a TGI in assay [9] of over 100 µM.
As to `O=C(/C=C/c1ccccc1O)c1cccc2ccccc12`, the TGI was over 100 µM in [1]; over 100 µM in [2]; over 80.8 µM in [3]; over 100 µM in assay [4]; over 100 µM in assay [5]; over 100 µM in [6]. Also, the TGI is 98.6 µM in assay [7], over 100 µM in assay [8] and over 100 µM in assay [9].
Consider `CN(C)C(=S)/N=c1\ss/c(=N\C(=S)N(C)C)n1Cc1ccco1`, for which the TGI in [1], in assay [2], in assay [3], in assay [4], in [5] and in assay [6] was over 100 µM in each case.
As to `CC(=O)OCCOCNC(=S)N/N=C(\C)c1cccs1`, the TGI in assay [1], in [2], in [3], in [4], in assay [5] and in [6] was over 100 µM in each case. Moreover, the TGI in assay [7] and in [9] was over 100 µM in each case.
As to `CN(C(=O)C12C3C4C1C1C2C3C41C(O)C(C)(C)C)C(C)(C)C` (centres undefined), the TGI in assay [1], in assay [2], in assay [3], in assay [4], in assay [5] and in assay [6] was over 100 µM in each case. For the same compound, the TGI in assay [7] and in [9] was over 100 µM throughout.
For the compound `Cc1cccc(C(C)C)c1NC(=O)CCl`, the TGI in assay [2] was over 100 µM; in [3], over 100 µM; in [4] it was over 100 µM; in assay [5] it was 30 µM; in [6], 98.8 µM; in [7], over 100 µM. The results for the TGI in assay [8] and in assay [9] were over 100 µM and 53.2 µM, respectively.
Take `Cn1nc2ccc3nccc(NCCNCCO)c3c2n1`: the TGI in assay [1], in assay [2], in [3], in assay [4], in assay [5] and in assay [6] was over 100 µM each time. The results for the TGI in [7] and in assay [8] were 43.1 µM and over 100 µM, respectively.
For the compound `OCC(O)COc1c(Cl)cc(Cl)cc1Cl` (centres undefined), the TGI in [1], in assay [2], in assay [3], in [4], in assay [5] and in [6] was over 100 µM throughout. For the same compound, the TGI in assay [7] is over 74.1 µM; in assay [8] it was over 100 µM; in assay [9] it was over 100 µM.
In the case of `O=C(O)c1cn(C2CC2)c2cc(N3CCNCC3)c(F)cc2c1=O`, the GI50 in [1], in assay [10], in assay [2], in assay [4], in assay [5] and in assay [6] was over 100 µM throughout. In addition, the TGI in assay [1], in assay [10], in assay [2], in [4], in assay [5] and in assay [6] was over 100 µM each time.
As to `CCOc1ccc(NCC2CC/C(=C\c3ccc(Cl)cc3)C2=O)cc1` (centres undefined), the TGI in assay [1] was over 50.6 µM; in [2], over 59.2 µM; in [3], 37.3 µM; in assay [4], over 100 µM; in [5], 13.9 µM; in [6], over 100 µM. For the same compound, the TGI was 35.4 µM in [7], 41.6 µM in assay [8] and over 73.8 µM in assay [9].
In the case of `O=C1CCCC(O)=C1SC1=C(O)CCCC1=O`, the TGI in assay [1], in assay [2], in assay [3], in assay [4], in assay [5] and in assay [7] was over 100 µM each time. Moreover, the TGI in assay [8] and in assay [9] was over 100 µM throughout.
On to `CCOC(=O)C(=O)Nc1ccccc1OCC`, for which the TGI in [1], in assay [2], in [3], in assay [4], in assay [5] and in assay [6] was over 100 µM throughout. Further, the TGI in assay [7], in assay [8] and in assay [9] was over 100 µM in each case.
Take `c1ccc2c(c1)Sc1ccccc1N2C1CN2CCC1CC2` (centres undefined): the TGI is 42.3 µM in [1]; 29.9 µM in assay [2]; 32 µM in [3]; 35.4 µM in assay [4]; 38.9 µM in assay [5]; 25.9 µM in assay [6]. Further, the TGI in assay [7] is 26.8 µM; in assay [9], 27.7 µM.
